Results reported in PubChem BioAssay AID2060491 (Molecular Pharmacology Branch, DTP, NCI, 2025).

Test system: 857933-349-R-J2-PDC complex spheroids, viability
Experiment: Anticancer human tumor 857933-349-R-J2-PDC patient-derived colon adenocarcinoma cell line growth inhibition [GQUAD]
Details: for IC50: curve of first compound; for viability, T/C: stronger effect = lower value
Outline: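 Multi-cell-type spheroids of tumor cells with HUVEC and mesenchymal stem cells, treated with drug combinations. Concentrations descend in half-log steps from near clinical Cmax, or from 10 microM where Cmax is unknown; viability read-out.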

[1] = second compound 0.0316 µM, first compound 0.0316 µM
[2] = second compound 0.0316 µM, first compound 0.316 µM
[3] = second compound 0.1 µM, first compound 0.0316 µM
[4] = second compound 0.1 µM, first compound 0.316 µM
[5] = second compound 0.316 µM, first compound 0.0316 µM
[6] = second compound 0.316 µM, first compound 0.316 µM
[7] = second compound 1 µM, first compound 0.0316 µM
[8] = second compound 1 µM, first compound 0.316 µM
[9] = second compound 3.16 µM, first compound 0.0316 µM
[10] = second compound 3.16 µM, first compound 0.316 µM
[11] = second compound 10 µM, first compound 0.0316 µM
[12] = second compound 10 µM, first compound 0.316 µM
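Note: spheroids exposed to compounds for one week before readout.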
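Throughout, for viability, T/C: percent viability relative to vehicle DMSO wells taken as 100%.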

## Cc1[nH]c2ccccc2c1CCNCc1ccc(/C=C/C(=O)NO)cc1 + Cc1[nH]c2ccc(F)cc2c1-c1nc2c3cccnc3c3ncccc3c2[nH]1
Second compound 0.0316 µM
  IC50: > 0.316 µM
Second compound 0.1 µM
  IC50: > 0.316 µM
Second compound 0.316 µM
  IC50: > 0.316 µM
Second compound 1 µM
  IC50: > 0.316 µM
Second compound 3.16 µM
  IC50: > 0.316 µM
Second compound 10 µM
  IC50: > 0.316 µM
Second compound 0.0316 µM, first compound 0.000999 µM
  viability, T/C: 103%
Second compound 0.0316 µM, first compound 0.00316 µM
  viability, T/C: 95.8%
Second compound 0.0316 µM, first compound 0.00999 µM
  viability, T/C: 97.6%
[1]
  viability, T/C: 104%
Second compound 0.0316 µM, first compound 0.0999 µM
  viability, T/C: 94%
[2]
  viability, T/C: 59.1%
Second compound 0.1 µM, first compound 0.000999 µM
  viability, T/C: 104%
Second compound 0.1 µM, first compound 0.00316 µM
  viability, T/C: 101%
Second compound 0.1 µM, first compound 0.00999 µM
  viability, T/C: 102%
[3]
  viability, T/C: 106%
Second compound 0.1 µM, first compound 0.0999 µM
  viability, T/C: 99.7%
[4]
  viability, T/C: 60.7%
Second compound 0.316 µM, first compound 0.000999 µM
  viability, T/C: 101%
Second compound 0.316 µM, first compound 0.00316 µM
  viability, T/C: 104%
Second compound 0.316 µM, first compound 0.00999 µM
  viability, T/C: 96%
[5]
  viability, T/C: 92.8%
Second compound 0.316 µM, first compound 0.0999 µM
  viability, T/C: 107%
[6]
  viability, T/C: 59.2%
Second compound 1 µM, first compound 0.000999 µM
  viability, T/C: 109%
Second compound 1 µM, first compound 0.00316 µM
  viability, T/C: 90%
Second compound 1 µM, first compound 0.00999 µM
  viability, T/C: 93.7%
[7]
  viability, T/C: 97.7%
Second compound 1 µM, first compound 0.0999 µM
  viability, T/C: 105%
[8]
  viability, T/C: 61.4%
Second compound 3.16 µM, first compound 0.000999 µM
  viability, T/C: 90.8%
Second compound 3.16 µM, first compound 0.00316 µM
  viability, T/C: 79.8%
Second compound 3.16 µM, first compound 0.00999 µM
  viability, T/C: 86.2%
[9]
  viability, T/C: 88%
Second compound 3.16 µM, first compound 0.0999 µM
  viability, T/C: 104%
[10]
  viability, T/C: 66.8%
Second compound 10 µM, first compound 0.000999 µM
  viability, T/C: 87%
Second compound 10 µM, first compound 0.00316 µM
  viability, T/C: 89.4%
Second compound 10 µM, first compound 0.00999 µM
  viability, T/C: 88.1%
[11]
  viability, T/C: 95.3%
Second compound 10 µM, first compound 0.0999 µM
  viability, T/C: 105%
[12]
  viability, T/C: 61%

## O=C(NO)c1cnc(N2CCN(S(=O)(=O)c3ccc4ccccc4c3)CC2)nc1 + Cc1[nH]c2ccc(F)cc2c1-c1nc2c3cccnc3c3ncccc3c2[nH]1
Second compound 0.0316 µM
  IC50: 1.53 µM
Second compound 0.1 µM
  IC50: 1.59 µM
Second compound 0.316 µM
  IC50: 1.61 µM
Second compound 1 µM
  IC50: 1.68 µM
Second compound 3.16 µM
  IC50: 1.6 µM
Second compound 10 µM
  IC50: 1.77 µM
[1]
  viability, T/C: 107%
Second compound 0.0316 µM, first compound 0.1 µM
  viability, T/C: 96.5%
[2]
  viability, T/C: 107%
Second compound 0.0316 µM, first compound 1 µM
  viability, T/C: 79%
Second compound 0.0316 µM, first compound 3.16 µM
  viability, T/C: 1.25%
Second compound 0.0316 µM, first compound 10 µM
  viability, T/C: 0.26%
[3]
  viability, T/C: 109%
Second compound 0.1 µM, first compound 0.1 µM
  viability, T/C: 103%
[4]
  viability, T/C: 100%
Second compound 0.1 µM, first compound 1 µM
  viability, T/C: 81.9%
Second compound 0.1 µM, first compound 3.16 µM
  viability, T/C: 2.07%
Second compound 0.1 µM, first compound 10 µM
  viability, T/C: 0.2%
[5]
  viability, T/C: 101%
Second compound 0.316 µM, first compound 0.1 µM
  viability, T/C: 100%
[6]
  viability, T/C: 96.1%
Second compound 0.316 µM, first compound 1 µM
  viability, T/C: 80.5%
Second compound 0.316 µM, first compound 3.16 µM
  viability, T/C: 6.68%
Second compound 0.316 µM, first compound 10 µM
  viability, T/C: 0.19%
[7]
  viability, T/C: 94.7%
Second compound 1 µM, first compound 0.1 µM
  viability, T/C: 92.4%
[8]
  viability, T/C: 98.2%
Second compound 1 µM, first compound 1 µM
  viability, T/C: 84.8%
Second compound 1 µM, first compound 3.16 µM
  viability, T/C: 7.25%
Second compound 1 µM, first compound 10 µM
  viability, T/C: 0.23%
[9]
  viability, T/C: 93.1%
Second compound 3.16 µM, first compound 0.1 µM
  viability, T/C: 93.7%
[10]
  viability, T/C: 96.1%
Second compound 3.16 µM, first compound 1 µM
  viability, T/C: 80.8%
Second compound 3.16 µM, first compound 3.16 µM
  viability, T/C: 4.92%
Second compound 3.16 µM, first compound 10 µM
  viability, T/C: 0.25%
[11]
  viability, T/C: 95.7%
Second compound 10 µM, first compound 0.1 µM
  viability, T/C: 94.2%
[12]
  viability, T/C: 99.2%
Second compound 10 µM, first compound 1 µM
  viability, T/C: 93.6%
Second compound 10 µM, first compound 3.16 µM
  viability, T/C: 5.75%
Second compound 10 µM, first compound 10 µM
  viability, T/C: 0.31%
